Experimental findings from patent publication US4348410A, “Cyclohexane carboxylic acid derivatives” (Nippon Chemiphar Co., Ltd., priority 1979, dated 1982) are described below.

Structures can show the parent of a compound that is named as a salt.

For one test, the target named is T1, trypsin (Bos taurus, UniProt P00760).
T1 sequence (P00760 24-246): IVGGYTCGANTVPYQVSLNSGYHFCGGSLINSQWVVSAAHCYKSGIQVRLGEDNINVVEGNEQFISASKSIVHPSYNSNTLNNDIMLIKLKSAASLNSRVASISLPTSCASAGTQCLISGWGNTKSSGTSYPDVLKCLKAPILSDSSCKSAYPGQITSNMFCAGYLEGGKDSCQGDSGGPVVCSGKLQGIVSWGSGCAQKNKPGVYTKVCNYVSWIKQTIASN
The test is described as follows: Inhibitory effects on trypsin (hydrolysis of p-tosylarginine methyl ester). The settings on record: for Inhibition (%) Trypsin: 37° C., 10 minutes, concentration not given. It is filed as biochemical. The method, then:
In particular, inhibitory effects of the compounds on hydrolysis of p-tosylarginine methyl ester by trypsin were examined (incubated at 37° C. for 10 minutes).

The next test addresses chymotrypsin (Bos taurus, UniProt P00766). The test is described as follows: Inhibitory effects on chymotrypsin (hydrolysis of N-acetyl-L-tyrosine ethyl ester). It is filed as biochemical. The settings on record: for Inhibition (%) Chymotrypsin: 37° C., 10 minutes, concentration not given. The method, then:
The compounds of the formula (I) have excellent inhibitory effects on protease. The inhibitory effects were determined by the following methods: Inhibitory effects on the compounds of chymotrypsin were determined according to the method described by M. […] In particular, inhibitory effects of the compounds on hydrolysis of N-acetyl-L-tyrosine ethyl ester by chymotrypsin were examined (incubated at 37° C. for 10 minutes).

The next test concerns the target thrombin (Bos taurus, UniProt P00735). The test is described as follows: Inhibitory effects on thrombin (hydrolysis of p-tosylarginine methyl ester). It is filed as biochemical. As to conditions: for Inhibition (%) Thrombin: 37° C., 10 minutes, concentration not given. The method, then:
The compounds of the formula (I) have excellent inhibitory effects on protease. The inhibitory effects were determined by the following methods:
Inhibitory effects of the compounds on thrombin were determined according to the method described by M. Muramatsu et al (The Journal of Biochemistry, Volume 65 (1), 17 (1969)). In particular, inhibitory effects of the compounds on hydrolysis of p-tosylarginine methyl ester by thrombin were examined (incubated at 37° C. for 10 minutes).

The target in another test is urokinase (Homo sapiens, UniProt P00749). As to the kind of experiment: Inhibitory effects on urokinase (hydrolysis of N-acetylglycyl lysine methyl ester). The settings on record: for Inhibition (%) Urokinase: 37° C., 10 minutes, concentration not given; for inhibition at 100 µM: 0.1 mM, read-out: inhibited hydrolytic activity by urokinase. It is filed as biochemical. The procedure: The compounds of the formula (I) have excellent inhibitory effects on protease. The inhibitory effects were determined by the following methods: Inhibitory effects of the compounds on urokinase were determined according to the method described by A. J. Joeson et al (Throm. […]. 21, 259-272 (1969)). In particular, inhibitory effects of the compounds on hydrolysis of N-acetylglycyl lysine methyl ester by urokinase were determined (incubated at 37° C. for 10 minutes).

Another test deals with acetic acid ulcers. The test is described as follows: Acetic acid ulcers. It is filed as in vivo, Male Sprague-Dawley strain rats. The settings on record: for Ulcer Grade 1 (number of rats): ulcer area 0-10 mm^2; for Ulcer Grade 2 (number of rats): ulcer area 11-20 mm^2; for Ulcer Grade 3 (number of rats): ulcer area 21-30 mm^2; for Ulcer Grade 4 (number of rats): ulcer area 31-40 mm^2; for Ulcer Grade 5 (number of rats): ulcer area >40 mm^2. The method, then: Male Sprague-Dawley strain rats, weighing about 200 g were used. Under ether anesthesia 10% acetic acid solution (0.05 ml) was injected carefully between the serous membrane and the muscle near the pylorus, and the abdomen was closed. Thereafter, the animals were maintained under conditions and administered 1 ml/100 g of each test drug dissolved or suspended in 0.5% carboxymethylcellulose solution p.o. daily×10 starting from the next day of the operation. On the 11th day, the rats were sacrificed under ether anesthesia, and the stomachs were removed. The area of the ulcer was measured and graded into 5 degrees as an ulcer index according to the following method: […]

A further test relates to Shay ulcers. The test is described as follows: Shay ulcers (pylorus ligation). The settings on record: 12.5 mg/kg i.p. It is filed as in vivo, Male Sprague-Dawley strain rats. The method, then:
The rats were sacrificed 18 hours later by an overdose of ether and the stomach removed. The stomach was incised along the greater curvature and the surface area of each lesion in forestomach was measured by the naked eye. […] 4=many ulcers of marked size 5=perforated ulcer The test drugs were given intraperitoneally, immediately after pylorus ligation.

The subject of the next test is gastric secretion. The test is described as follows: Influence to the gastric secretion (pylorus ligation). The settings on record: 12.5 mg/kg i.p. It is filed as in vivo, Male Sprague-Dawley strain rats. The procedure: Male Sprague-Dawley strain rats, weighing 160-180 g were deprived of food but allowed free access to water for 20 hours prior to experiment. […] The test drug was given intraperitoneally immediately after pylorus ligation. The rats were sacrificed 3, 6 and 12 hours later and the stomachs removed. The gastric juice was collected and analyzed for volume. Then the gastric juice was centrifuged at 1300 g for 10 minutes at room temperature to give the supernatant. The total acidity and peptic activity of the supernatant were determined. Total acidity was determined by titrating with 0.01 N NaOH. […] Total acidity is shown as the titration volume (ml) and peptic activity is shown as the corresponding weight (mg) to crystal pepsin.

For the compound `CCOc1ccccc1OC(=O)[C@H]1CC[C@H](CNC(=N)N)CC1` [Compound 4], at trypsin, the “Inhibition (%) Trypsin” value was found to be 22%. For the same compound, at chymotrypsin, the “Inhibition (%) Chymotrypsin” value stood at 28%. Besides, at thrombin, the “Inhibition (%) Thrombin” value is given as 35%. Further, the “Inhibition (%) Urokinase” value on urokinase is listed as 84%.

As for `N=C(N)NC[C@H]1CC[C@H](C(=O)Oc2ccccc2C(=O)Oc2ccccc2)CC1` [Compound 5], the “Inhibition (%) Trypsin” value on trypsin amounted to 38%. Moreover, the “Inhibition (%) Chymotrypsin” value on chymotrypsin was found to be 90%. Moreover, the “Inhibition (%) Thrombin” value on thrombin is listed as 34%. For the same compound, at urokinase, the “Inhibition (%) Urokinase” value was found to be 35%.

Regarding `CCOC(=O)c1ccc(OC(=O)[C@H]2CC[C@H](CNC(=N)N)CC2)cc1` [Compound 6], the “Inhibition (%) Trypsin” value at trypsin came to 25%. For the same compound, the “Inhibition (%) Chymotrypsin” value at chymotrypsin came to 70%. The “Inhibition (%) Thrombin” value at thrombin turned out to be 39%. In addition, the “Inhibition (%) Urokinase” value at urokinase came out at 50%.

For `Cl.N=C(N)NC[C@H]1CC[C@H](C(=O)Oc2cccnc2)CC1` [Compound 7, 3pyridyl trans4-guanidinomethylcyclohexanecarboxylate hydrochloride], the “Inhibition (%) Trypsin” value at trypsin is reported as 23%. On chymotrypsin, the “Inhibition (%) Chymotrypsin” value is recorded as 70%. For the same compound, the “Inhibition (%) Thrombin” value at thrombin was determined as 32%. Besides, on urokinase, the “Inhibition (%) Urokinase” value amounted to 67%.

Take `N=C(N)NC[C@H]1CC[C@H](C(=O)Oc2ccccc2C(=O)O)CC1` [Compound 10]: in the test on acetic acid ulcers (300 mg/kg p.o. daily×10), the “Ulcer Grade 1 (number of rats)” value was determined as 4, the “Ulcer Grade 2 (number of rats)” value is 2, the “Ulcer Grade 3 (number of rats)” value was 1 and the “Ulcer Grade 4 (number of rats)” value is reported as 0. Moreover, in the test with acetic acid ulcers (300 mg/kg p.o. daily×10), the “Ulcer Grade 5 (number of rats)” value was 2. Further, in the test on acetic acid ulcers (500 mg/kg p.o. daily×10), the “Ulcer Grade 1 (number of rats)” value is listed as 4, the “Ulcer Grade 2 (number of rats)” value came to 3, the “Ulcer Grade 3 (number of rats)” value is 1 and the “Ulcer Grade 4 (number of rats)” value was found to be 0. Further, the “Ulcer Grade 5 (number of rats)” value in the test with acetic acid ulcers (500 mg/kg p.o. daily×10) was 0.

On to `CN1[C@@H]2CC[C@H]1C[C@@H](OC(=O)C(CO)c1ccccc1)C2` (some centres unmarked) [Compound B, atropine sulfate, reference compound], for which, in the test with Shay ulcers (0=no lesion), the “Ulcer Grade 0 (number of rats)” value is reported as 2. The “Ulcer Grade 1 (number of rats)” value in the test on Shay ulcers (1=hemorrhagic suffusion) came to 1. Further, in the test with Shay ulcers (2=1-5 small ulcers (<3 mm)), the “Ulcer Grade 2 (number of rats)” value came out at 0. In addition, in the test on Shay ulcers (3=many small ulcers (more than 5) or 1 ulcer of marked size), the “Ulcer Grade 3 (number of rats)” value was determined as 1. The “Ulcer Grade 4 (number of rats)” value with Shay ulcers (4=many ulcers of marked size) is reported as 3. Further, the “Ulcer Grade 5 (number of rats)” value in the test with Shay ulcers (5=perforated ulcer) was 3. Further, the “Titratable Pepsin Output” value stood at 3.3 ± 0.9 mg in the test on gastric secretion (3 hours), 9.7 ± 1.6 mg with gastric secretion (6 hours) and 34.2 ± 1.4 mg in the test on gastric secretion (12 hours). Besides, the results for the “Titratable Pepsin Output % change” value with gastric secretion (3 hours), with gastric secretion (6 hours) and in the test with gastric secretion (12 hours) were 43.1%, 55.3% and 41.0%, respectively.

With `Cc1c(C)c2c(c(C)c1OC(=O)[C@H]1CC[C@H](CNC(=N)N)CC1)CCC(C)(CCCC(C)CCCC(C)CCCC(C)C)O2` (some centres unmarked) [Example 1], the inhibition at 100 µM is approximately 50% on trypsin (0.1 mM, read-out: inhibited hydrolytic activity by trypsin) and approximately 50% on thrombin (0.1 mM, read-out: inhibited hydrolytic activity by thrombin).

Turning to `N=C(N)NC[C@H]1CC[C@H](C(=O)Oc2ccccc2C=O)CC1` [Example 19], at urokinase, the inhibition at 100 µM turned out to be 56%.

For the compound `COc1ccccc1OC(=O)[C@H]1CC[C@H](CNC(=N)N)CC1` [Example 20], the inhibition at 100 µM at urokinase came to 50%.

Take `COc1ccc(OC(=O)[C@H]2CC[C@H](CNC(=N)N)CC2)cc1` [Example 21]: the inhibition at 100 µM at urokinase turned out to be 52%.

Take `CC(=O)c1ccccc1OC(=O)[C@H]1CC[C@H](CNC(=N)N)CC1` [Example 23, 2'-Acetylphenyl trans-4-guanidomethycylohexanecarboxylate hydrochloride]: the inhibition at 50 µM on chymotrypsin (0.05 mM, read-out: inhibited hydrolytic activity by chymotrypsin) was 50%.
